This is an account of results in patent US20070232594A1, “Aromatic amide derivatives, medicinal compositions containing the same, medical uses of both” (priority 2004, published 2007).

For orientation: EC50 means the concentration needed to bring the measured effect to its halfway point. The Ki is a measure of affinity in units of concentration, obtained from inhibition or displacement.

Structures are written as SMILES.

For assay [1], the target named is T1, human V2 receptor (Homo sapiens, UniProt P30518). The assay can be described thus: Study to confirm the agonism of human V2 receptor (intracellular Ca2+, HEK293 cells coexpressing human V2 receptor and Gqs chimeric protein). It counts as cell-based. Also on record: expressed in transfected cells; host or cells: HEK293 cells (American Type Culture Collection), transient transfection with pCI-neo/hV2 and pLEC-Gqs5. The protocol: The Study to Confirm the Agonism of Human V2 Receptor
The experiment to confirm the response of the test compounds to human V2 receptor was carried out using the cells prepared as described below in order to use this confirmation study to see the agonism of human V2 receptor of the test compounds.
The test compounds were dissolved in dimethylsulfoxide at 10 mM and solutions of the test compounds were prepared by 10-fold serial dilution with the Assay buffer (0.1% BSA, 20 mM HEPES/Hank's balanced salt solution, pH 7.4) at the concentration of 0.1 nM to 10 μM, which were used in this study.
Human V2 receptor couples with Gs protein, one of the G-coupling protein, and consequently produces cyclic adenosine 3′, 5′-monophosphate (cAMP) via adenylate cyclase. This cAMP produce can be substituted to intracellular increase of Ca^2+ with coexpressing Gqs, a chimeric protein, and human V2 receptor (Mol. Pharmacol., Vol. 50, pp. 885-890, 1996). The responses of the test compounds for human V2 receptor were quantified by measuring this intracellular Ca^2+. The changes of intracellular Ca^2+ after adding the test compounds at each concentration as mentioned above (0.1 nM to 10 μM) were measured with a FlexStation (Molecular Devices) using a FLIPR CALCIUM ASSAY KIT (Molecular Devices).
The intrinsic activities (IA) of the test compounds were calculated from the maximum response of the test compounds as that of AVP was considered to be 1. In case of a full agonist, the EC50 values of the test compounds were calculated as the maximum response of AVP was considered to be 100% and in the case of a partial agonist, EC50 values of test compounds were calculated as the maximum response of own test compounds were considered to be 100%. The concentration that achieved to 50% response of the maximum response in a concentration-response curve was considered as EC50 value. The values of EC50 obtained in this study were shown in Table 68 described below as indications of the agonism of human V2 receptor.
The Preparation of the Cells Using Confirmation Study of an Agonism of Human V2, Receptor (HEK293 Cells Coexpressed Human V2 Receptor and Gqs Chimeric Protein)
HEK293 cells (American Type Culture Collection) were incubated in the Eagle's Minimum Essential Medium (EMEM, Invitrogen) containing 1 mM sodium pyruvate, nonessential amino acids (0.1 mM), streptomycin (100 μg/mL), penicillin (100 U/mL), 10% fetal calf serum (Sanko chemicals) in an incubator with 5% CO2 at 37° C. The transfection was carried out by adding pCI-neo hV2 expression vector, expression vector inserted with the sequence coding Gqs chimeric protein (pLEC-Gqs5, LiveWare, Molecular Devices) and Lipofectamine2000 (Invitrogen), all diluted with OPTI-MEM I Reduced Serum Medium I (Invitrogen), to the cell suspension which was prepared from the confluent cells suspended with EMEM as mentioned above without antibiotics at 1×10^6 cells/mL. After the transfection, the cells (HEK293 cells coexpressed human V2 receptor and Gqs chimeric protein) were incubated in an incubator with 5% CO2 for two days and were used as cells for confirming agonism of human V2 receptor, and used for assessment of the test compounds. The expression plasmid vector of human V2 receptor represented as pCI-neo/hV2 above was constructed by the method as described below.
The Method of Construction of Human V2 Receptor Expression Plasmid Vector
cDNA library was obtained from reverse transcription of human kidney total RNA using SuperScript II RNase H-reverse transcriptase (Invitrogen) and oligo dT. The DNA fragment encoding human V2 receptor was amplified by the PCR method using the cDNA library as a template, primers used in combination of each forward primer (sequence no. 1-3 shown below) and each reverse primer (sequence no. 4-6 shown below) respectively and pfu DNA polymerase (Stratagene). This amplified DNA fragment and pCR-blunt kit (Invitrogen), a cloning plasmid vector, were ligated by a general method of the kit. […]

In assay [2] the target is T1, human V2 receptor. Put plainly: Binding experiment for human V2 receptor ([3H]-AVP displacement, CHO cell membranes). Particulars: [3H]-AVP binding, CHO cell membranes expressing human V2 receptor; Ki calculated from IC50 and Kd. Also on record: purchased Packard BioScience; host or cells: CHO cells (membranes). How it is done:
Binding Experiment for Human V2 Receptor
Test compounds were dissolved in dimethylsulfoxide at 10 mM. The affinities for human V2 receptor were determined by an inhibition against [^3H]-Arginie vasopressin (AVP) (Perkin elmer Japan) binding to the human V2 receptor using CHO cell membranes expressed human V2 receptor (Packard BioScience). Cell membranes suspension was prepared by suspending the cell membranes as mentioned above with Assay buffer (50 mM Tris-HCl, 10 mM MgCl2, 0.1% bovine serum albumin (BSA), pH7.4) at an adequate protein concentration. The test compound solutions were prepared by diluting the dimethylsulfoxide solution of the test compound as mentioned above with Assay buffer at final concentration of 10 nM, 100 nM, 1 μM and 10 μM (in this diluting procedure, concentration of dimethylsulfoxide was adjusted to be 0.5% at each concentration of the test compound). Cell membranes suspension (50 μL), 3 nM of [^3H]-AVP (50 μL), Assay buffer (50 μL) and the solution of the test compounds at each concentrations (50 μL) were added to MultiScreen 96-well plate (Millipore) and the mixture was incubated for an hour at 25° C. with shaking slightly. After filtration by aspiration, the plate was washed with ice-cold washing buffer (50 mM Tris-HCl, 10 mM MgCl2, pH 7.4) for three times. After dry the plate, Microscinti-20 (Packard) was added to each well and the plate was shaken slightly, and then radioactivities of each well were counted with a micro plate scintillation counter, TopCount (Packard). Non-specific binding of [^3H]-AVP for cell membranes was determined by adding 1 μM of cold AVP substituted for the test compounds. The concentration of the test compounds inhibiting the specific binding of [^3H]-AVP by 50% was considered as IC50 value.
The Calculation of Kd Value of [^3H]-AVP for the Cell Membranes Expressed Human V2 Receptor
The suspension of the cell membranes expressed human V2 receptor was prepared with diluting adequately with the Assay buffer as mentioned above. In consideration for the radioactivity of [^3H]-AVP, six different concentrations (final concentration; ranging from approximately 100 pM to 6000 pM) of [^3H]-AVP were prepared by serial dilution by from 2 to 3 fold with the Assay buffer. The cell membranes suspension (50 μL), each concentrations of [^3H]-AVP (50 μL), the Assay buffer (50 μL) and 1 μM of cold AVP or the Assay buffer were added to MultiScreen 96-well plate (Millipore) and the mixture was incubated for an hour at 25° C. with shaking slightly. The specific bindings (Bvalue) of each concentrations of the [^3H]-AVP were determined by the method as mentioned above and free-bound contents (F value) at each concentrations of the [^3H]-AVP were determined. The Kd value was calculated by Scatchard analysis using the B value and the F value.

T1 sequence (P30518 whole entry): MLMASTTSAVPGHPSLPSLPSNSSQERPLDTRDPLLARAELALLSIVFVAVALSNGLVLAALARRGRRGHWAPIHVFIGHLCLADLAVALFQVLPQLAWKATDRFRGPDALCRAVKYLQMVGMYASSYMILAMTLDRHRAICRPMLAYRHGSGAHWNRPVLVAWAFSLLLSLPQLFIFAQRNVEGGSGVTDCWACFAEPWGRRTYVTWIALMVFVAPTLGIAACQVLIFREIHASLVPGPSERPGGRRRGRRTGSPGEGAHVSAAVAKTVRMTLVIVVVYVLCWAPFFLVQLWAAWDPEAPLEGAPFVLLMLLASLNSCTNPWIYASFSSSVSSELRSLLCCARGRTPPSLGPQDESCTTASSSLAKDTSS

`CCOC(=O)CN1Cc2ccccc2N(C(=O)c2ccc(N3CCCC3)cc2Cl)CC1=O` [Example 1-7, ethyl [1-(2-chloro-4-pyrro-lidin-1-ylbenzoyl)-3-ox-o-1,2,3,5-tetra-hydrobenzo[e]-1,4-di-azepin-4-yl]acetate]: the EC50 in assay [1] (intracellular Ca2+, HEK293 cells coexpressing human V2 receptor and Gqs) was determined as 4 nM. The “IA (intrinsic activity)” value in assay [1] (maximum response relative to AVP = 1) turned out to be 0.92. Also, the Ki in assay [2] is 86.6 nM.
